Data reported in ChEMBL document CHEMBL1201862, “PubChem BioAssay data set” (2004).
Calls of active or inactive are those of the source.

Tests used:
Procathepsin L = Procathepsin L (Homo sapiens, UniProt P07711); assay: cathepsin L inhibitors, dose response, counter-screen for M1/M17 aminopeptidase inhibitor project, biochemical, QFRET, 1536-well (AID 2214)
Leucine aminopeptidase = target: T1, Leucine aminopeptidase (Plasmodium falciparum 3D7, UniProt Q8IL11); assay: P. falciparum M17LAP inhibitors, primary screen, biochemical, fluorogenic H-Leu-NHMec substrate, 1536-well (AID 1619); assay type: functional
T1 sequence (Q8IL11 whole entry): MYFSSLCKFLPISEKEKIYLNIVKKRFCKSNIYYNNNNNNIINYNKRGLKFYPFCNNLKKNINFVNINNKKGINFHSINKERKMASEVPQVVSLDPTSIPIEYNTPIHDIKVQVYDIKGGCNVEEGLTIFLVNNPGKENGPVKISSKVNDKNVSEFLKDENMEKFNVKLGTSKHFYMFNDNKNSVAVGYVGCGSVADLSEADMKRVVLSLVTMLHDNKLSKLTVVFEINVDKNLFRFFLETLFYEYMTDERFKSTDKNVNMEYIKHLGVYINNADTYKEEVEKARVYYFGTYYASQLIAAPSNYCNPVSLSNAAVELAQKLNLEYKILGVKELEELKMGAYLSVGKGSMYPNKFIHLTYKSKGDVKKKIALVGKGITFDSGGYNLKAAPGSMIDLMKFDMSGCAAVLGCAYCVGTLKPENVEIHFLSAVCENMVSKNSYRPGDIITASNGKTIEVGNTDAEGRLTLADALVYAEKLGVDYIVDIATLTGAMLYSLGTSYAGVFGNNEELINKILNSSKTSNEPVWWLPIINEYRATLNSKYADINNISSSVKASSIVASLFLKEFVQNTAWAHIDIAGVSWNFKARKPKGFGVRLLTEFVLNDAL

[1] = target: T2, Long-chain-fatty-acid--AMP ligase FadD28 (Mycobacterium tuberculosis, UniProt P9WQ59); assay: Fluorescence polarization aasay to screen for inhibitors that compete for the binding of FadD28 to a bisubstrate Measured in Biochemical System Using Plate Reader - 2147-01_Inhibitor_Dose_CherryPick_Activity.; assay type: functional, Mycobacterium tuberculosis H37Rv
T2 sequence (P9WQ59 whole entry): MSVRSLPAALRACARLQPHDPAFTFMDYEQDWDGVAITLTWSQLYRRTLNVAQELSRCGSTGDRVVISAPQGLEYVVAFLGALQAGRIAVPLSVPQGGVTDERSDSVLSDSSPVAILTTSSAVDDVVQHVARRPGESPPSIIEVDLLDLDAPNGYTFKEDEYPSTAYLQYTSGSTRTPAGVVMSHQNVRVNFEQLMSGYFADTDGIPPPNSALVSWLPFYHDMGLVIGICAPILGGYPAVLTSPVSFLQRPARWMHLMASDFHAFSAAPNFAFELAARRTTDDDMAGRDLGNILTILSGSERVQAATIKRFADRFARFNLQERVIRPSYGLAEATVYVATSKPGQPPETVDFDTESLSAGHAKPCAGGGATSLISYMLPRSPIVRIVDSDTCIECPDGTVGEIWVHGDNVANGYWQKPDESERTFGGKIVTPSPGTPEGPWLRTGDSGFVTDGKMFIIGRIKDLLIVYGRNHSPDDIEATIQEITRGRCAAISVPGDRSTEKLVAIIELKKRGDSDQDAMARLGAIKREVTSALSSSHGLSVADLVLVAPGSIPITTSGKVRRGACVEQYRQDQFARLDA

Aspartyl aminopeptidase = Aspartyl aminopeptidase (Plasmodium falciparum 3D7, UniProt Q8I2J3); assay: Counterscreen for inhibitors of M1 and M17 aminopeptidases: QFRET-based biochemical high throughput dose response assay for inhibitors of the Plasmodium falciparum M18 Aspartyl Aminopeptidase (PFM18AAP). [Related PubChem assays: 1619 (Screening assay (M17LAP inhibitors).), 1445 (Screening assay (M1AAP inhibitors).)]
Sequence of Aspartyl aminopeptidase (Q8I2J3 whole entry): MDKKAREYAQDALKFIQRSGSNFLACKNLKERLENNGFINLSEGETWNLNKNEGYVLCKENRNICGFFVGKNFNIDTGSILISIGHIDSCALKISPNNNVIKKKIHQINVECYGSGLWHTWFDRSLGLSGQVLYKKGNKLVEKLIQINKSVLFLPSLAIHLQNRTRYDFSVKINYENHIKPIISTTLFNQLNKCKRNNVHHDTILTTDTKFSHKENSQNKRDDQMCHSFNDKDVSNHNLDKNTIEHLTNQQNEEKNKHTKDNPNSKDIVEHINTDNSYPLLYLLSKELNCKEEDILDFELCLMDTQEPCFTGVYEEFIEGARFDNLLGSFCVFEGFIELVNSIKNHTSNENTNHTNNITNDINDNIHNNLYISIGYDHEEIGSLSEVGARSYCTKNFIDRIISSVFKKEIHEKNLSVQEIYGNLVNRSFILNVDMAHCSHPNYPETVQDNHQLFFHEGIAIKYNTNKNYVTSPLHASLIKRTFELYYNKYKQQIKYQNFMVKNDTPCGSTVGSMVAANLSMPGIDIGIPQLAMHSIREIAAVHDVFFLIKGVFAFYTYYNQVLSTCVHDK

[2] = target: Protein-tyrosine kinase 2-beta (Homo sapiens, UniProt Q14289);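 further: potency of inhibitors of PYK2 kinase phosphorylation of poly-GT substrate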
Sequence of Protein-tyrosine kinase 2-beta (Q14289 whole entry): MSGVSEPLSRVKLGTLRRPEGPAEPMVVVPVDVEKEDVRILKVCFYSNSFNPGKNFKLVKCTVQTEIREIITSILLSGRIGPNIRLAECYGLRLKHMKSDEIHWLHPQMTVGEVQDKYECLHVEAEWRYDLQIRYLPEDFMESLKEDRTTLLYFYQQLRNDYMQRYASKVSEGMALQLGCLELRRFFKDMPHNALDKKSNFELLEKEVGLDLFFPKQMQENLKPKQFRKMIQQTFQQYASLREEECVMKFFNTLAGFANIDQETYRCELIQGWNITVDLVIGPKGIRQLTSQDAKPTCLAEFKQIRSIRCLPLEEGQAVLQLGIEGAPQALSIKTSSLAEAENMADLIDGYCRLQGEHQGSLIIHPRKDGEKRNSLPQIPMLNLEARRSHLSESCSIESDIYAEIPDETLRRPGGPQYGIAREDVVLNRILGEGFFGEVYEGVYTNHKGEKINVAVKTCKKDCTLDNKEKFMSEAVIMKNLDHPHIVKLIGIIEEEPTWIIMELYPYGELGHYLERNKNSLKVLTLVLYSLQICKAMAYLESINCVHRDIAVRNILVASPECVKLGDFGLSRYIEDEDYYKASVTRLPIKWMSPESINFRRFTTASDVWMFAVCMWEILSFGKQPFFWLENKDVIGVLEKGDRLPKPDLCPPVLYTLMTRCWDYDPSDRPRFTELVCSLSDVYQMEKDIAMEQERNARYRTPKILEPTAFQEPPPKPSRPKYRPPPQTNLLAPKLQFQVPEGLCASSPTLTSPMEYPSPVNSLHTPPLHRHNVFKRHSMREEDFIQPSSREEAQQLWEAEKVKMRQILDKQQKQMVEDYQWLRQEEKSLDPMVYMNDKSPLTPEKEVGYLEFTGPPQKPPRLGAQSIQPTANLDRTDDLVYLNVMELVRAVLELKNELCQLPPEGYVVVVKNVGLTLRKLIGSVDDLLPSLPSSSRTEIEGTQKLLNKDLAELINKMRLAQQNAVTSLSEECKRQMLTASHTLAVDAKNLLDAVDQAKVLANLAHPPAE

Prothrombin = Prothrombin (Bos taurus, UniProt P00735); assay: thrombin inhibition, dose response, biochemical, fluorescence polarization, uHTS hits (AID 602369); assay type: functional
[3] = target: 72 kDa type IV collagenase (Homo sapiens, UniProt P08253); assay: Dose Response validation of uHTS RPN11 inhibitor hits using a MMP-2 Fluorescence assay.; assay type: functional
Sequence of 72 kDa type IV collagenase (P08253 whole entry): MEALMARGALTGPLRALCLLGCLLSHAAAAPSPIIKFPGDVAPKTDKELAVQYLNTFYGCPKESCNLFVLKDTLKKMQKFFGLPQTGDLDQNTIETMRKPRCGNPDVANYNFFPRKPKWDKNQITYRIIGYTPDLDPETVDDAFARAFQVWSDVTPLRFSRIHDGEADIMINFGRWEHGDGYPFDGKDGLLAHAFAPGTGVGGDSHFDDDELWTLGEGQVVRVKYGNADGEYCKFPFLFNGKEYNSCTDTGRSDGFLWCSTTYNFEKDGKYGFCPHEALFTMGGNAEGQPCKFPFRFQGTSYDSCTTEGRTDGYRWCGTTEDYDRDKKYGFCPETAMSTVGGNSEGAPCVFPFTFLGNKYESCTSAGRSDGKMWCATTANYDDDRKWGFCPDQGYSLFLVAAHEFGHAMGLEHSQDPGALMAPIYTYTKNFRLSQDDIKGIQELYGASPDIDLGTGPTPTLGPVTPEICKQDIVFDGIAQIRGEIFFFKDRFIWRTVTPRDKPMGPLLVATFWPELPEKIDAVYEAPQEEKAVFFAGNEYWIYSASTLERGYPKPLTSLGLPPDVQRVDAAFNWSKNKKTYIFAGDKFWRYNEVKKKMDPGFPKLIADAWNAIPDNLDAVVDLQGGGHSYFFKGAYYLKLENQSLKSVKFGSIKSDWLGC

[4] = growth suppression of PTEN-null colon cells, dose response, cell-based, HCT116 PTEN knockout (AID 1047); assay type: functional;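 further: HCT116 colon tumor cells with PTEN knocked out; cells exposed to compound for 60 hours before readout; potency for loss of cell viability measured by luminescence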
[5] = target: T3, Microphthalmia-associated transcription factor (Homo sapiens, UniProt O75030); assay: TRPM1 promoter luciferase signal decrease, dose response, MITF inhibitor project, cell-based, SK-MEL-5, cherry-picked, set 3 (AID 493073); assay type: functional
T3 sequence (O75030 whole entry): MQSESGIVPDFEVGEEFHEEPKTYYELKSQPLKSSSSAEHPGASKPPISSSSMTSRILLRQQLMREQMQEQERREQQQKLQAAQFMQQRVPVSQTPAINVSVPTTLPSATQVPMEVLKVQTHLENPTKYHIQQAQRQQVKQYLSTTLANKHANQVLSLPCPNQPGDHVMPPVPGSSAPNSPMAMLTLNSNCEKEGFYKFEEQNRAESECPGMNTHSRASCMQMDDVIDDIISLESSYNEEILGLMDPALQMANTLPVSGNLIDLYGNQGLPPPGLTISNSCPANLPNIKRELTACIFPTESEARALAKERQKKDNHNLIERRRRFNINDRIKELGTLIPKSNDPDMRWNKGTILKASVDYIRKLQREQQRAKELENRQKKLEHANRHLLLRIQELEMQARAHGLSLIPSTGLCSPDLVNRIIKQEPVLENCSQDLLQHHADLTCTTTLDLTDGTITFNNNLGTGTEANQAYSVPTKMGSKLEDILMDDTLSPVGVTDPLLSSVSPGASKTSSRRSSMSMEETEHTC

[6] = target: 26S proteasome non-ATPase regulatory subunit 14 (Homo sapiens, UniProt O00487); assay: inhibition of proteasome subunit RPN11 – biochemical, fluorescence polarization, uHTS hits, confirmation (AID 602368); assay type: functional
Sequence of 26S proteasome non-ATPase regulatory subunit 14 (O00487 whole entry): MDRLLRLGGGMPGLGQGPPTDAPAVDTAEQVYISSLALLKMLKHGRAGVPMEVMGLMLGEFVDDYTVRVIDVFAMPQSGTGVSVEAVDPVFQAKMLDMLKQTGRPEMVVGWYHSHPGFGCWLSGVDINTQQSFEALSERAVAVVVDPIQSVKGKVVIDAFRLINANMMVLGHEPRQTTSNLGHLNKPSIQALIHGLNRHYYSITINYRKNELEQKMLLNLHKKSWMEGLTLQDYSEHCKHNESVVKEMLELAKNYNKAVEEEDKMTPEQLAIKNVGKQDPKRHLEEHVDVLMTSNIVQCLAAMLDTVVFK

[7] = target: T4, Apoptotic protease-activating factor 1 (Homo sapiens, UniProt O14727); assay type: functional
T4 sequence (O14727 whole entry): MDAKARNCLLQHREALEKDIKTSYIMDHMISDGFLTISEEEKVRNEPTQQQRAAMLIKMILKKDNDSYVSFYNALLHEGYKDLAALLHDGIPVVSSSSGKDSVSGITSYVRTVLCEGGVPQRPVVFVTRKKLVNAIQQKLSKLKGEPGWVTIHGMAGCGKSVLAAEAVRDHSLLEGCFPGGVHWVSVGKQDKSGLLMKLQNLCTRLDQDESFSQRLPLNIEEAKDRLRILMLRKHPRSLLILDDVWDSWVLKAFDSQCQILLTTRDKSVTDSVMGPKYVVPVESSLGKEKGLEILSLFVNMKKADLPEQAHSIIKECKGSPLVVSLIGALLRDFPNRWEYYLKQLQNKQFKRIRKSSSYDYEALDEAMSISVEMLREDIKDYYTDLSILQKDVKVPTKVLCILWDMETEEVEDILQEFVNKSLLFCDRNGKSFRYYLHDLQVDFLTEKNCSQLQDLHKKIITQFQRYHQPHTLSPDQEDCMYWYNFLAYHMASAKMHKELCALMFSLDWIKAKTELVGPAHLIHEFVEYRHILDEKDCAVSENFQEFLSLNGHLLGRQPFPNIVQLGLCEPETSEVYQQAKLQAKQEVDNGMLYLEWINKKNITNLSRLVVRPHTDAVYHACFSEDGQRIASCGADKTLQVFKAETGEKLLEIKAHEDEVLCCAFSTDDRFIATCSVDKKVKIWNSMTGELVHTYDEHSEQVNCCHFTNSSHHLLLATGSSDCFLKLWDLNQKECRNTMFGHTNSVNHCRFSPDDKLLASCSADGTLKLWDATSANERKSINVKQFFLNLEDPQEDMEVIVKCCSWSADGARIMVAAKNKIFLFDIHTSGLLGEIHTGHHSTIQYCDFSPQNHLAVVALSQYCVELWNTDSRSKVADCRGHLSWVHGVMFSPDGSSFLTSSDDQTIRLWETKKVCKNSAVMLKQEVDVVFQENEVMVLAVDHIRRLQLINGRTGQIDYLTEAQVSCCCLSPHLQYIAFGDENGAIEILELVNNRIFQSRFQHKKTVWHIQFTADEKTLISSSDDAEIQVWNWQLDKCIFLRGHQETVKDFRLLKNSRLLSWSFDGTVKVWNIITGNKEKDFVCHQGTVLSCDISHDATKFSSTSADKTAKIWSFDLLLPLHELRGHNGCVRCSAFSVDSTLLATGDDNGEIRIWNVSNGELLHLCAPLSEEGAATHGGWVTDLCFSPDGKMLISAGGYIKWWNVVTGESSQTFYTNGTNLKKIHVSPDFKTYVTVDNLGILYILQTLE

[8] = Luminescence Cell-Based Dose Retest to Confirm Inhibitors of Cancer Stem Cells. [Related pubchem assays (depositor defined):AID2717, AID2721]; assay type: functional; conditions: Homo sapiens
A-375 = assay: A375 melanoma cell viability reduction, dose response, counter-screen for MITF modulator project, cherry-pick samples, set 2 (AID 540335); assay type: functional, cell-based; conditions: Homo sapiens
[9] = growth suppression of beta-catenin-knockout colon cells, dose response, cell-based, HCT116, human colon tumor (AID 1045); assay type: functional;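 further: HCT116 colon tumor cells with beta catenin knocked out; cells exposed to compound for 60 hours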

Sequence of Procathepsin L (P07711 whole entry): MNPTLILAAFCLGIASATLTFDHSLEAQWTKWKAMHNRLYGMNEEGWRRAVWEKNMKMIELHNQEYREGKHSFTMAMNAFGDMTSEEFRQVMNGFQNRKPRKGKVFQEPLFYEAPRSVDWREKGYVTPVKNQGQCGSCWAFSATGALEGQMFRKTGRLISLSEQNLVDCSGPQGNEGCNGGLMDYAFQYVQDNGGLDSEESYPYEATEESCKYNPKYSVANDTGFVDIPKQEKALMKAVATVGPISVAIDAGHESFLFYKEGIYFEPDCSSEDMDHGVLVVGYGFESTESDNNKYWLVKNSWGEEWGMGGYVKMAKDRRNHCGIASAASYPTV

Row | SMILES | IC50 (Procathepsin L) | IC50 (Leucine aminopeptidase) | AC50 [1] | IC50 (Aspartyl aminopeptidase) | IC50 [2] | IC50 (Prothrombin) | IC50 [3] | EC50 [4] | AC50 [5] | IC50 [6] | IC50 [7] | AC50 [8] | AC50 (A-375) | EC50 [9]
1 | CCOc1ccc(NC(=O)C2C(C(=O)O)C3(Cl)C(Cl)=C(Cl)C2(Cl)C3(Cl)Cl)cc1 (centres undefined) | > 59.6 µM (not active) | < 1 µM (active) | 11.5 µM (active) | > 73.5 µM (not active) |  |  |  |  |  |  |  |  |  | 
2 | CCOc1ccc2nc(NC3=NC(=O)CC(c4ccc(OC)cc4)N3)nc(C)c2c1 (centres undefined) |  |  |  |  | 5.85 µM (active) | 77.6 µM (active) | > 100 µM (inactive) | 9.86 µM (active) | 9.49 µM (active) | 22 µM (active) | 17.6 µM (active) | 8.71 µM (active) | 27.7 µM (active) | 7.4 µM (active)
